Where a name gives a salt, the structure may show the parent alone. Read-outs that look alike come from different tables or passages of the source.
Tests used:
SARS-CoV-2 [1] = assay: microbe, parasite or virus in culture; assay type: cell-based; conditions: for Emax: Severe acute respiratory syndrome coronavirus 2, HeLa-ACE2, 24 h, curve plateau at infinite concentration, read-out: HeLa-ACE2 CoV-2 Sinf Average
[2] = Uninfected HeLa-ACE2 24 h live/dead cytotoxicity counter screen; assay type: cell-based, human; conditions: human, uninfected HeLa-ACE2 cells, detail block; read-out: HeLa-ACE2 uninfected cytotoxicity CC50 GeoMean
HeLa-ACE2 cells [3] = assay: as above; assay type: cell-based, human; conditions: curve plateau at infinite concentration
SARS-CoV-2 [4] = assay: microbe, parasite or virus in culture; assay type: cell-based; conditions: for Emax: Severe acute respiratory syndrome coronavirus 2, Calu-3, 48 h, read-out: Calu-3 CoV-2 Sinf Average; for EC50: Severe acute respiratory syndrome coronavirus 2, Calu-3, detail block, read-out: Calu-3 CoV-2 EC50 GeoMean
SARS-CoV-2 [5] = assay: microbe, parasite or virus in culture; assay type: cell-based; conditions: for Emax: Severe acute respiratory syndrome coronavirus 2, HeLa-ACE2, 10 h, curve plateau at infinite concentration, read-out: HeLa-ACE2 TOA CoV-2 Sinf Average; for EC50: Severe acute respiratory syndrome coronavirus 2, HeLa-ACE2, detail block, read-out: HeLa-ACE2 TOA CoV-2 EC50 GeoMean
HeLa-ACE2 cells [6] = assay: cells; assay type: cell-based, human; conditions: Homo sapiens, HeLa-ACE2; read-out: HeLa-ACE2 TOA cell count EC50 GeoMean
HeLa-ACE2 cells [7] = assay: cells; conditions: Homo sapiens; for EC50: HeLa-ACE2, read-out: HeLa-ACE2 cell count EC50 GeoMean, detail block; for Emax: HeLa-ACE2, 24 h, read-out: HeLa-ACE2 cell count Sinf Average
Calu-3 cells [8] = assay: cells; conditions: Homo sapiens; for EC50: Calu-3, read-out: Calu-3 cell count EC50 GeoMean, detail block; for Emax: Calu-3, 48 h, read-out: Calu-3 cell count Sinf Average
[9] = HepG2 72 h CellTiter-Glo cytotoxicity; conditions: human, HepG2 cells
HepG2 = HepG2 72 h CellTiter-Glo cytotoxicity; conditions: 72 h
[10] = HEK293T 72 h CellTiter-Glo cytotoxicity; conditions: human, HEK293T cells
HEK293T = HEK293T 72 h CellTiter-Glo cytotoxicity; conditions: 72 h
[11] = Uninfected Calu-3 48 h Cell-Titer Glo cytotoxicity counter screen; conditions: human, uninfected Calu-3 cells, Calu-3 uninfected cytotoxicity CC50 GeoMean, detail block
Calu-3 cells [12] = assay: as above; conditions: curve plateau at infinite concentration
[13] = Severe acute respiratory syndrome coronavirus 2, HeLa-ACE2, detail block, read-out: HeLa-ACE2 CoV-2 EC50 GeoMean
[14] = selectivity index, uninfected HeLa-ACE2 CC50 / SARS-CoV-2 EC50
[15] = curve plateau at infinite concentration
[16] = selectivity index, uninfected Calu-3 CC50 / Calu-3 SARS-CoV-2 EC50

SMILES | Emax (SARS-CoV-2 [1]) [%] | EC50 (SARS-CoV-2 [1]; [13]) [µM] | HeLa-ACE2 SI (SARS-CoV-2 [1]; [14]) | CC50 at 24 h [2] [µM] | HeLa-ACE2 uninfected cytotoxicity Sinf Average (HeLa-ACE2 cells [3]) [%] | Emax (SARS-CoV-2 [4]; [15]) [%] | EC50 (SARS-CoV-2 [4]) [µM] | Calu-3 SI (SARS-CoV-2 [4]; [16]) | TOA:HeLa-ACE2 EC50 Ratio (SARS-CoV-2 [5]) | Emax (SARS-CoV-2 [5]) [%] | EC50 (SARS-CoV-2 [5]) [µM] | EC50 (HeLa-ACE2 cells [6]) [µM] | EC50 (HeLa-ACE2 cells [7]) [µM] | EC50 (Calu-3 cells [8]) [µM] | CC50 at 72 h [9] [µM] | HepG2 72-hour cytotoxicity Sinf Average (HepG2) [%] | CC50 at 72 h [10] [µM] | HEK293T 72-hour cytotoxicty Sinf Average (HEK293T) [%] | CC50 at 48 h [11] [µM] | Calu-3 uninfected cytotoxicity Sinf Average (Calu-3 cells [12]) [%] | further results
CC(CN(C)C)CN1c2ccccc2CCc2ccccc21 (stereo not drawn) [Trimipramine maleate] | 99 | 2.11 | 10.11 | 21.3 | -100 | 100 | > 9.98 | 2.90 | 2.576 | 100 | 5.42 | > 9.59 | > 9.59 | > 9.98 | 18.8 | -100 | 12.8 | -102 | > 29 | -100 | –
OCCN1CCN(CC/C=C2/c3ccccc3Sc3ccc(Cl)cc32)CC1 [Zuclopenthixol] | 100 | 2.08 | > 8.08 | > 16.8 | -100 | 100 | > 9.05 | 1.06 | 2.929 | 99 | 6.1 | > 9.59 | > 9.59 | > 9.98 | 12.5 | -100 | 18.6 | -100 | 9.6 | -100 | Emax (HeLa-ACE2 cells [7]): 100%
COc1ccc2cc1Oc1ccc(cc1)C[C@H]1c3cc(c(OC)cc3CCN1C)Oc1c(OC)c(OC)cc3c1[C@H](C2)N(C)CC3 [Hanfangchin A] | 100 | – | – | > 18.9 | -99 | – | > 9.98 | – | 7.993 | 100 | > 9.41 | > 9.59 | > 9.21 | > 9.98 | 2.28 | -105 | 3.6 | -101 | 15.2 | -100 | HeLa-ACE2 SI (SARS-CoV-2 [1]): > 16.08; EC50 (SARS-CoV-2 [1]; Severe acute respiratory syndrome coronavirus 2, HeLa-ACE2, read-out: HeLa-ACE2 CoV-2 EC50 GeoMean, detail block): 1.18 µM; Calu-3 SI (SARS-CoV-2 [4]): 1.53; Emax (SARS-CoV-2 [4]): 87%; Emax (HeLa-ACE2 cells [7]): 100%
CCCCCCOC(=O)NC(=N)c1ccc(NCc2nc3cc(C(=O)N(CCC(=O)OCC)c4ccccn4)ccc3n2C)cc1 [Dabigatran etexilate mesilate] | 100 | 4.08 | – | > 26.5 | -97 | – | > 9.98 | – | – | 100 | > 9.51 | > 9.59 | > 9.59 | > 9.98 | 13.1 | -96 | 8.53 | -101 | > 29.9 | -100 | HeLa-ACE2 SI (SARS-CoV-2 [1]): > 6.50; TOA:HeLa-ACE2 EC50 Ratio (SARS-CoV-2 [5]; TOA EC50 / HeLa-ACE2 SARS-CoV-2 EC50): 2.329; Emax (Calu-3 cells [8]): 100%
COC(=O)[C@H]1[C@H]2C[C@@H]3c4[nH]c5cc(OC)ccc5c4CCN3C[C@H]2C[C@@H](OC(=O)c2cc(OC)c(OC)c(OC)c2)[C@@H]1OC [Reserpine] | 100 | > 5.51 | > 6.60 | > 36.4 | -100 | 100 | > 9.98 | 2.85 | 0.542 | 100 | 2.99 | > 9.61 | > 9.6 | > 9.98 | 33 | -100 | 11.7 | -100 | > 28.5 | -100 | Emax (Calu-3 cells [8]): 100%
CCc1ccc2c(c1)N(CC(C)CN(C)C)c1ccccc1S2 (stereo not drawn) [Ethylisobutrazine hydrochloride] | 100 | 2 | 10.48 | 20.9 | -100 | 100 | > 9.98 | 1.57 | 1.889 | 100 | 3.77 | > 9.59 | > 9.59 | > 9.98 | 14.1 | -100 | 10.3 | -104 | 15.7 | -100 | Emax (HeLa-ACE2 cells [7]): 100%

Source: paper PMC8175350, “Drug repurposing screens identify chemical entities for the development of COVID-19 interventions” (Nature Communications, 2021)
